Source: patent US12606541B2, “PPARg modulators and methods of use” (Eisai R&D Management Co., Ltd., priority 2020, dated 2026)
Where two headings read alike, the source gives them in different places.

Target: T1, His6-TEV-PPARγ-(234-505) (Homo sapiens, UniProt P37231)
T1 construct: The His6-TEV-PPARγ-(234-505) protein for assay was expressed and purified; TEV cleavage site (N); made in house
T1 sequence (P37231 234-505): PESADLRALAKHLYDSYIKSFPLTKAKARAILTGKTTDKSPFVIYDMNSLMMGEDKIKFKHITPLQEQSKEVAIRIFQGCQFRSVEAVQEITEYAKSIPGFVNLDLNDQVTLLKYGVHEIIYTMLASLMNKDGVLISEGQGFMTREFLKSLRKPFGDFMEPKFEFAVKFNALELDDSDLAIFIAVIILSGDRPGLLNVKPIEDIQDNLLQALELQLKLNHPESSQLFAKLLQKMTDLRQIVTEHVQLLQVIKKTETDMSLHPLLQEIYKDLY
Assay: TR-FRET Assay to Measure Co-R Peptide Recruitment to PPARγ
Format: biochemical
Outline: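 Corepressor recruitment is measured by adding terbium-labeled anti-His antibody and FITC SMRT-ID2 peptide, at 5 and 200 nM final, after a 20-minute room-temperature protein–compound incubation. After one further hour, signal is converted to percent response between DMSO and 500 nM T0070907 wells.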

[1] = Co-R peptide recruitment to PPARγ, read-out: TR-FRET AC50

SMILES | AC50 [1] [nM] | AC50 (Co-R peptide (SMRT-ID2) recruitment, top final concentration 20 μM, read-out: TR-FRET i-Ag, AC50) [nM]
COc1cc(-c2cc(C(=O)N3C[C@H]4CC[C@@H]3CC4C(=O)NCc3cccc(Cl)c3)n[nH]2)c(F)cn1 (relative stereo) [(1R,4S,5R*)—N-[(3-chlorophenyl)methyl]-2-[5-(5-fluoro-2-methoxypyridin-4-yl)-1H-pyrazole-3-carbonyl]-2-azabicyclo[2.2.2]octane-5-carboxamide] | > 1000 | –
COc1cc(-c2cc(C(=O)N3CCC(C(=O)NCC4CN(C)C4)CC3)n[nH]2)c(Cl)cn1 [1-[5-(5-chloro-2-methoxypyridin-4-yl)-1H-pyrazole-3-carbonyl]-N-[(1-methylazetidin-3-yl)methyl]piperidine-4-carboxamide] | > 1000 | –
COc1cc(-c2cc(C(=O)N3CCC(C(=O)Nc4nccnc4O)CC3)n[nH]2)c(Cl)cn1 [1-[5-(5-chloro-2-methoxypyridin-4-yl)-1H-pyrazole-3-carbonyl]-N-(3-hydroxypyrazin-2-yl)piperidine-4-carboxamide] | > 1000 | –
COc1cc(-c2cc(C(=O)N3CCC(C(=O)NCC4CC(F)(F)C(=O)N4)CC3)n[nH]2)c(Cl)cn1 (stereo not drawn) [1-[5-(5-chloro-2-methoxypyridin-4-yl)-1H-pyrazole-3-carbonyl]-N-[(4,4-difluoro-5-oxopyrrolidin-2-yl)methyl]piperidine-4-carboxamide] | > 1000 | –
COc1cc(-c2cc(C(=O)N3CCC(C(=O)NCc4ncon4)CC3)n[nH]2)c(Cl)cn1 [1-[5-(5-chloro-2-methoxypyridin-4-yl)-1H-pyrazole-3-carbonyl]-N-[(1,2,4-oxadiazol-3-yl)methyl]piperidine-4-carboxamide] | > 1000 | –
O=C(NCc1ccc(Cl)c(Cl)c1)C1CCN(C(=O)c2cc(-c3cccnc3)[nH]n2)CC1 [N-[(3,4-dichlorophenyl)methyl]-1-[5-(pyridin-3-yl)-1H-pyrazole-3-carbonyl]piperidine-4-carboxamide] | > 1000 | –
COc1cc(-c2cc(C(=O)N3CCC(C(=O)NCc4nc5c(cnn5C)c(=O)[nH]4)CC3)n[nH]2)c(Cl)cn1 [1-[5-(5-chloro-2-methoxypyridin-4-yl)-1H-pyrazole-3-carbonyl]-N-({1-methyl-4-oxo-1H,4H,5H-pyrazolo[3,4-d]pyrimidin-6-yl}methyl)piperidine-4-carboxamide] | > 1000 | –
O=C(Nc1ccc2c(c1)OCCO2)C1CCCN(C(=O)c2cc(-c3ccncc3)[nH]n2)C1 (stereo not drawn) [N-(2,3-dihydro-1,4-benzodioxin-6-yl)-1-[5-(pyridin-4-yl)-1H-pyrazole-3-carbonyl]piperidine-3-carboxamide] | > 1000 | –
COc1cc(-c2cc(C(=O)N3CCC(C(=O)Nc4nc(C)cn4C)CC3)n[nH]2)c(Cl)cn1 [1-[5-(5-chloro-2-methoxypyridin-4-yl)-1H-pyrazole-3-carbonyl]-N-(1,4-dimethyl-1H-imidazol-2-yl)piperidine-4-carboxamide] | > 1000 | –
COc1cc(-c2cc(C(=O)N3CCC(C(=O)N[C@@H]4CCOc5c(F)ccc(F)c54)CC3)n[nH]2)c(Cl)cn1 [1-[5-(5-chloro-2-methoxypyridin-4-yl)-1H-pyrazole-3-carbonyl]-N-[(4R)-5,8-difluoro-3,4-dihydro-2H-1-benzopyran-4-yl]piperidine-4-carboxamide] | > 1000 | –
COc1cc(-c2cc(C(=O)N3CCC(C(=O)O)CC3)n[nH]2)c(Cl)cn1 [1-[5-(5-chloro-2-methoxypyridin-4-yl)-1H-pyrazole-3-carbonyl]piperidine-4-carboxylic acid] | > 1000 | –
COc1cc(-c2cc(C(=O)N3CCC(C(=O)NCC4CCCOC4)CC3)n[nH]2)c(Cl)cn1 (stereo not drawn) [1-[5-(5-chloro-2-methoxypyridin-4-yl)-1H-pyrazole-3-carbonyl]-N-[(oxan-3-yl)methyl]piperidine-4-carboxamide] | > 1000 | –
COc1cc(-c2cc(C(=O)N3CCC(C(=O)NC4(C)CCOCC4)CC3)n[nH]2)c(Cl)cn1 [1-[5-(5-chloro-2-methoxypyridin-4-yl)-1H-pyrazole-3-carbonyl]-N-(4-methyloxan-4-yl)piperidine-4-carboxamide] | > 1000 | –
COc1cc(-c2cc(C(=O)N3C(C)CC(C(=O)NCc4cccc(Cl)c4)CC3C)n[nH]2)c(Cl)cn1 (mixture of isomers) [Example 274, 1-(5-(5-chloro-2-methoxypyridin-4-yl)-1H-pyrazole-3-carbonyl)-N-(3-chlorobenzyl)-2,6-dimethylpiperidine-4-carboxamide] | – | 20
CC(C)(C)Oc1ccc(CNC(=O)C2CCN(C(=O)c3cc(-c4ccncc4)[nH]n3)CC2)cc1 [N-{[4-(tert-butoxy)phenyl]methyl}-1-[5-(pyridin-4-yl)-1H-pyrazole-3-carbonyl]piperidine-4-carboxamide] | > 1000 | –
COc1cc(-c2cc(C(=O)N3CCC(C(=O)NCc4ccc5[nH]ncc5c4)CC3)n[nH]2)c(Cl)cn1 [1-[5-(5-chloro-2-methoxypyridin-4-yl)-1H-pyrazole-3-carbonyl]-N-[(1H-indazol-5-yl)methyl]piperidine-4-carboxamide] | > 1000 | –

Now from value to molecule:

AC50 [1] [nM] | AC50 (Co-R peptide (SMRT-ID2) recruitment, top final concentration 20 μM, read-out: TR-FRET i-Ag, AC50) [nM] | SMILES
> 1000 | – | COc1cc(-c2cc(C(=O)N3CCC(C(=O)NC4CC4)CC3)n[nH]2)c(Cl)cn1 [1-[5-(5-chloro-2-methoxypyridin-4-yl)-1H-pyrazole-3-carbonyl]-N-cyclopropylpiperidine-4-carboxamide]
> 1000 | – | COc1cc(-c2cc(C(=O)N3CCC(C(=O)NC4CCC(F)(F)CC4)CC3)n[nH]2)ccn1 [N-(4,4-difluorocyclohexyl)-1-[5-(2-methoxypyridin-4-yl)-1H-pyrazole-3-carbonyl]piperidine-4-carboxamide]
> 1000 | – | O=C(NC1CCCC1)C1CCN(C(=O)c2cc(-c3ccncc3)[nH]n2)CC1 [N-cyclopentyl-1-[5-(pyridin-4-yl)-1H-pyrazole-3-carbonyl]piperidine-4-carboxamide]
> 1000 | – | CC1CCC(NC(=O)C2CCN(C(=O)c3cc(-c4ccncc4F)[nH]n3)CC2)CC1 (stereo not drawn) [1-[5-(3-fluoropyridin-4-yl)-1H-pyrazole-3-carbonyl]-N-(4-methylcyclohexyl)piperidine-4-carboxamide]
> 1000 | – | CC1CCC(NC(=O)C2CCN(C(=O)c3cc(-c4ccnc(N5CCCC5)c4)[nH]n3)CC2)CC1 (stereo not drawn) [N-(4-methylcyclohexyl)-1-{5-[2-(pyrrolidin-1-yl)pyridin-4-yl]-1H-pyrazole-3-carbonyl}piperidine-4-carboxamide]
> 1000 | – | O=C(NC1CCC(CCO)CC1)C1CCN(C(=O)c2cc(-c3ccncc3)[nH]n2)CC1 (stereo not drawn) [N-[4-(2-hydroxyethyl)cyclohexyl]-1-[5-(pyridin-4-yl)-1H-pyrazole-3-carbonyl]piperidine-4-carboxamide]
> 1000 | – | COc1cc(-c2cc(C(=O)N3CCC(C(=O)NC4CCN(C5CCC5)CC4)CC3)n[nH]2)c(Cl)cn1 [1-[5-(5-chloro-2-methoxypyridin-4-yl)-1H-pyrazole-3-carbonyl]-N-(1-cyclobutylpiperidin-4-yl)piperidine-4-carboxamide]
> 1000 | – | C[C@H](NC(=O)C1CCN(C(=O)c2cc(-c3ccncc3)[nH]n2)CC1)c1ccccc1 [N-[(1S)-1-phenylethyl]-1-[5-(pyridin-4-yl)-1H-pyrazole-3-carbonyl]piperidine-4-carboxamide]
> 1000 | – | CN(C)CCNC(=O)C1CCN(C(=O)c2cc(-c3ccncc3)[nH]n2)CC1 [N-[2-(dimethylamino)ethyl]-1-[5-(pyridin-4-yl)-1H-pyrazole-3-carbonyl]piperidine-4-carboxamide]
> 1000 | – | O=C(c1cc(-c2ccncc2)[nH]n1)N1CCC(C(=O)N2CCC23COC3)CC1 [1-{1-[5-(pyridin-4-yl)-1H-pyrazole-3-carbonyl]piperidine-4-carbonyl}-6-oxa-1-azaspiro[3.3]heptane]
> 1000 | – | O=C(Nc1ccc(Cl)cc1)C1CCCN(C(=O)c2cc(-c3ccncc3)[nH]n2)C1 (stereo not drawn) [N-(4-chlorophenyl)-1-[5-(pyridin-4-yl)-1H-pyrazole-3-carbonyl]piperidine-3-carboxamide]
> 1000 | – | COc1cccc(CNC(=O)C2CCN(C(=O)c3cc(-c4ccncc4)[nH]n3)CC2)c1 [N-[(3-methoxyphenyl)methyl]-1-[5-(pyridin-4-yl)-1H-pyrazole-3-carbonyl]piperidine-4-carboxamide]
> 1000 | – | COc1cc(Cl)ccc1CNC(=O)C1CCN(C(=O)c2cc(-c3ccncc3)[nH]n2)CC1 [N-[(4-chloro-2-methoxyphenyl)methyl]-1-[5-(pyridin-4-yl)-1H-pyrazole-3-carbonyl]piperidine-4-carboxamide]
> 1000 | – | O=C(NC1CCC(c2ccccc2)CC1)C1CCN(C(=O)c2cc(-c3ccncc3)[nH]n2)CC1 (stereo not drawn) [N-(4-phenylcyclohexyl)-1-[5-(pyridin-4-yl)-1H-pyrazole-3-carbonyl]piperidine-4-carboxamide]
> 1000 | – | O=C(NCCc1ccccc1)C1CCN(C(=O)c2cc(-c3ccncc3)[nH]n2)CC1 [N-(2-phenylethyl)-1-[5-(pyridin-4-yl)-1H-pyrazole-3-carbonyl]piperidine-4-carboxamide]
> 1000 | – | COc1cc(-c2cc(C(=O)N3CCC(C(=O)NCC4CCCCO4)CC3)n[nH]2)c(Cl)cn1 (stereo not drawn) [1-[5-(5-chloro-2-methoxypyridin-4-yl)-1H-pyrazole-3-carbonyl]-N-[(oxan-2-yl)methyl]piperidine-4-carboxamide]
> 1000 | – | COc1ccccc1CNC(=O)C1CCN(C(=O)c2cc(-c3ccncc3)[nH]n2)CC1 [N-[(2-methoxyphenyl)methyl]-1-[5-(pyridin-4-yl)-1H-pyrazole-3-carbonyl]piperidine-4-carboxamide]
